{"source": "patent US8685984B2", "about": "“Methods for treating HCV” (AbbVie Inc., priority 2011, dated 2014)", "tested_on": "HCV genotype 1a replicon cell line", "assay": "EC50 in HCV genotype 1a replicon cell line", "type": "cell-based", "details": "Hepatitis C virus, read-out: EC50 value for the HCV genotype 1a replicon cell line"}
{"smiles": "Cc1cnc(C(=O)N[C@H]2CCCCC/C=C\\[C@@H]3C[C@@]3(C(=O)NS(=O)(=O)C3CC3)NC(=O)[C@@H]3C[C@@H](Oc4nc5ccccc5c5ccccc45)CN3C2=O)cn1", "note": "[Compound 1, (2R,6S,13aS,14aR,16aS,Z)—N-(cyclopropylsulfonyl)-6-(5-methylpyrazine-2-carboxamido)-5,16-dioxo-2-(phenanthridin-6-yloxy)-1,2,3,5,6,7,8,9,10,11,13a,14,14a,15,16,16a-hexadecahydrocyclopropa[e]pyrrolo[1,2-a][1,4]diazacyclopentadecine-14a-carboxamide]", "values": [{"measurement": "EC50", "value": 900, "unit": "pM"}]}
{"smiles": "COc1c(-c2ccc3cc(NS(C)(=O)=O)ccc3c2)cc(-n2ccc(=O)[nH]c2=O)cc1C(C)(C)C", "note": "[Compound 2, N-(6-(3-tert-butyl-5-(2,4-dioxo-3,4-dihydropyrimidin-1(2H)-yl)-2-methoxyphenyl)naphthalen-2-yl)methanesulfonamide]", "values": [{"measurement": "EC50", "value": 7700, "unit": "pM"}]}
{"smiles": "COC(=O)N[C@H](C(=O)N1CCC[C@H]1C(=O)Nc1ccc([C@@H]2CC[C@@H](c3ccc(NC(=O)[C@@H]4CCCN4C(=O)[C@@H](NC(=O)OC)C(C)C)cc3)N2c2ccc(C(C)(C)C)cc2)cc1)C(C)C", "note": "[Compound 4]", "values": [{"measurement": "EC50", "value": 10, "unit": "pM"}]}
